Biological target: T1, human recombinant Yes [a.a. 2–543 (end)] (Homo sapiens, UniProt P07947)
T1 construct: human recombinant Yes [a.a; 2–543 (end)]; purchased BPS Bioscience 40488
Test: ADP-Glo kinase assay, inhibition rates of Yes phosphorylation activity (first and second screening)
Format: biochemical
Conditions: 10 μmol L−1 compound; for First screening IR (inhibition rate): mean of n = 4 wells
Outline: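 Hits from a first pass were rescreened after re-dissolution from fresh powder. The first pass reported the mean inhibition rate of quadruplicate wells per compound. Activity was that of recombinant human Yes [a.a. 2–543] kinase, read out with the ADP-Glo ADP-detection method.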

T1 sequence (P07947 2-543): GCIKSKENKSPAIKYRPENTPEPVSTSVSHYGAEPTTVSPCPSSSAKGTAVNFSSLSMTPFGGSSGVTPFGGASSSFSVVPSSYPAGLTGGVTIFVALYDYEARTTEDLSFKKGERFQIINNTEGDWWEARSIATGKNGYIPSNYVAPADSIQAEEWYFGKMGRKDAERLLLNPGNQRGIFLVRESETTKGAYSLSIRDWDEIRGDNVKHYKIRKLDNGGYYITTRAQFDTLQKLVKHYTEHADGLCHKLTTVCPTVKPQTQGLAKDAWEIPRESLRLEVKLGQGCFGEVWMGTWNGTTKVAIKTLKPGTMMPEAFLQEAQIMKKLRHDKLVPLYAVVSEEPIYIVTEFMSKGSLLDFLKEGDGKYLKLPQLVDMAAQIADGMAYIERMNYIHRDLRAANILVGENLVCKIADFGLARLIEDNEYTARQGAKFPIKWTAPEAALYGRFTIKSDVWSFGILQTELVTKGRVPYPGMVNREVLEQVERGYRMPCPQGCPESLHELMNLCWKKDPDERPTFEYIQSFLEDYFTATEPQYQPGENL

| Structure (SMILES) | First screening IR (inhibition rate) | Second screening IR (inhibition rate) (second screening, dissolved from fresh powder, n = 4) |
| --- | --- | --- |
| COc1cc(/C=C(\C#N)C(=O)NC2CCCCC2)ccc1OCC(=O)Nc1ccc(Br)cc1 [Compound Z44319326] | -16% | – |
| Cc1cc(OCC(=O)NC(C)c2ccc(-n3ccnc3)cc2)ccc1C(C)C (centres unmarked) [Compound Z27305591] | -7% | – |
| Cc1ccc(N(C(=O)c2ccc(C(C)(C)C)cc2)C2C=CS(=O)(=O)C2)cc1 (centres unmarked) [Compound Z56970107] | 4% | – |
| O=C(/C=C/c1cc2ccccc2nc1N1CCOCC1)c1ccc(S(=O)(=O)N2CCCC2)cc1 [Compound Z46590414] | 1% | – |
| Cc1ccc(C)c(N2C(=O)c3ccc(C(=O)Nc4ccc(N5CCN(C)CC5)cc4C)cc3C2=O)c1 [Compound Z27972425] | 8% | – |
| O=S1(=O)CCC(S(=O)(=O)c2ccccc2)C1 (centres unmarked) [Compound Z57056479] | 4% | – |
| Cc1c(-c2ccc(O)cc2)nc2ccc(Cl)cc2c1-c1ccccc1.Cl [Compound Z48950829] | 33% | 14% |
| CCN(CC)S(=O)(=O)c1ccc(S(N)(=O)=O)cc1 [Compound Z45415602] | 1% | – |
| CC(=O)CCc1ccc(OCc2cc(=O)n3cc(C)ccc3n2)cc1 [Compound Z25824142] | -24% | – |
| COc1ccc(Nc2ncnc(N)n2)cc1 [Compound Z56938001] | 14% | – |
| N#Cc1ccc(Cl)cc1NC(=O)CSc1ncnc2ccccc12 [Compound Z19316082] | 18% | – |
| CC(Sc1n[nH]c(-c2cccs2)n1)c1nc2ccccc2c(=O)[nH]1 (centres unmarked) [Compound Z19451548] | 2% | – |
| Cc1ccc(S(=O)(=O)NC(=O)c2cc(C)n(CCCn3ccnc3)c2C)cc1 [Compound Z55892329] | -11% | – |
| CC(c1ccccc1)n1c(NC(=O)c2ccccc2)c(S(=O)(=O)c2ccccc2)c2nc3ccccc3nc21 (centres unmarked) [Compound Z56877281] | -3% | – |
| CCN(CC)c1ccc2c(c1)OC(=O)N(c1ccc(Cl)c(Cl)c1)P2(=Nc1ccc(C)cc1)N(CC)CC (centres unmarked) [Compound Z56783141] | -2% | – |
| CC(C)c1ccc(S(=O)(=O)NC(C)c2ccc(-n3ccnc3)cc2)cc1 (centres unmarked) [Compound Z45488257] | -8% | – |
| CC(C)c1ccc(N2C(=O)Cc3c2nc(N)c2c(N)nc(N4CCCC4)c(C#N)c32)cc1 [Compound Z55589601] | 6% | – |
| COc1ccc(OC)c(-n2c(-c3ccc(C)cc3)nn(CN3CCN(c4ccc(O)cc4)CC3)c2=S)c1 [Compound Z44104256] | 10% | – |
| CCOC(=O)c1c(Nc2nc3ccccc3nc2N2CCN(Cc3ccccc3)CC2)sc(C)c1C [Compound Z56866112] | 2% | – |
| CN1CCC(N(C)S(=O)(=O)c2ccc(NC(=O)Cc3ccc(F)cc3)cc2)CC1 [Compound Z28459327] | 13% | – |
| CCN(CC)S(=O)(=O)c1ccc(N2CCN(S(=O)(=O)c3ccccc3C#N)CC2)nc1 [Compound Z31169752] | 6% | – |

Further lines, results first:

| First screening IR (inhibition rate) | Second screening IR (inhibition rate) (second screening, dissolved from fresh powder, n = 4) | Structure (SMILES) |
| --- | --- | --- |
| 15% | – | CCN(Cc1ccc2c(c1)OCCO2)C(=O)CSc1nnc(C(C)N(C)C)n1-c1ccc(F)cc1 (centres unmarked) [Compound Z97565837] |
| -13% | – | O=C(NS(=O)(=O)Cc1ccc(Cl)nc1)C1CCc2cn[nH]c2C1 (centres unmarked) [Compound Z1291253354] |
| -7% | – | FC(F)(F)c1ccnc(Nc2ccc(N3CCOCC3)nc2)n1 [Compound Z318998372] |
| 11% | – | O=C(NCc1ccccc1)Nc1ccc2oc(C3CC3)nc2c1 [Compound Z369933958] |
| 1% | – | Cc1csc(CNC(=O)c2cc(-c3ccccc3)nc3c2cnn3C(C)C)n1 [Compound Z225893888] |
| -17% | – | NC(=O)C(NCCCN1CCc2ccccc21)c1ccccc1 (centres unmarked) [Compound Z320065982] |
| -2% | – | FC(F)(F)c1nc(N2CCOCC2)c2cnn(Cc3ccccc3)c2n1 [Compound Z108567148] |
| -1% | – | O=S(=O)(c1ccc(Br)cc1Cl)N1CCN(Cc2cn3ccccc3n2)CC1 [Compound Z89065969] |
| 9% | – | Cc1cc(C(=O)Nc2ccc3c(c2)CCC3)ccc1-n1cnnn1 [Compound Z365246124] |
| 2% | – | Clc1ccc(Oc2cccc(-c3nc4c5ccccc5c5ccccc5c4[nH]3)c2)cc1 [Compound Z57984419] |
| -1% | – | Cc1ccc2nc3c(c(C(=O)O)c2c1)CCC/C3=C/c1cnn(C(C)C)c1 [Compound Z1184925017] |
| 5% | – | O=C(c1cc(-c2ccccc2)nc2c1cnn2Cc1cccc(F)c1)N1CCC1 [Compound Z117073454] |
| -8% | – | O=S(=O)(c1c(Cl)cccc1Cl)N1CCN(Cc2nc(-c3cccc(Cl)c3)no2)CC1 [Compound Z90231169] |
| 11% | – | O=C(Nn1cnc2ccccc21)c1cnn(-c2ccccc2F)c1-n1cccc1 [Compound Z339292340] |
| 2% | – | Cn1nccc1/C=C1\C(=O)Nc2ccccc21 [Compound Z336032014] |
| -21% | – | CCCCN(C1CCS(=O)(=O)C1)S(C)(=O)=O (centres unmarked) [Compound Z237523250] |

| First screening IR (inhibition rate) | Second screening IR (inhibition rate) (second screening, dissolved from fresh powder, n = 4) | Structure (SMILES) |
| --- | --- | --- |
| -15% | – | CSc1ccc(CSCc2nc(N)nc(Nc3ccccc3)n2)cc1 [Compound Z99558919] |
| -7% | – | CN(C1CCCCCC1)S(=O)(=O)c1cccc(S(C)(=O)=O)c1 [Compound Z300508876] |
| 25% | – | Cl.Oc1ccc(O)c(-c2cc(-c3ccccc3Cl)c3cc(Cl)ccc3n2)c1 [Compound Z134829678] |
| 3% | – | COc1cc(C(=O)NCCc2ccc(-n3cccn3)cc2)ccc1C [Compound Z223337292] |
| 4% | – | CCSc1cncc(N2CCC(C(=O)NC(C)C(C)C)CC2)n1 (centres unmarked) [Compound Z1168201963] |
| 51% | – | CCN1CCN(Cc2ccc(NC(=O)C3CCCN3C(=O)c3ccc4ccccc4c3O)cc2)CC1 (centres unmarked) [Compound Z992207680] |
| 8% | – | CS(=O)(=O)c1ccc(N2CCC2)c(S(C)(=O)=O)c1 [Compound Z666133744] |
| -11% | – | O=C(OCc1cccc(C(F)(F)F)c1)c1n[nH]c(=O)c2ccccc12 [Compound Z94561070] |
| 6% | – | Cc1n[nH]c(C)c1/C=C/C(=O)c1ccc(N2CCCC2=O)cc1 [Compound Z424802904] |
| 1% | – | NS(=O)(=O)C1CC=CCC1 (centres unmarked) [Compound Z1517090453] |
| -1% | – | O=C(Nc1cc(-c2cccc([N+](=O)[O-])c2)sc1C(=O)O)c1ccc2c(c1)CCC2 [Compound Z204342388] |
| -8% | – | CC1CN(C(=O)C2CCS(=O)(=O)C2)c2cc(F)ccc2CN1C(=O)OC(C)(C)C (centres unmarked) [Compound Z1566941984] |
| -5% | – | Cc1ccc(Nc2ccnc(Nc3ccc(C)cc3)n2)cc1 [Compound Z118512882] |
| 13% | – | c1ccc(-c2cn(Cc3nc(-c4cccs4)no3)nn2)cc1 [Compound Z1425793872] |
| 0% | – | Cn1nc(C2CCC2)cc1NC(=O)c1cc(Br)cnc1Cl [Compound Z1433129748] |

From paper PMC5607274, “An iterative compound screening contest method for identifying target protein inhibitors using the tyrosine-protein kinase Yes” (Scientific Reports, 2017)
